{
  "source": "patent US20220340597A1",
  "about": "“HEXAHYDRO-1H-PYRAZINO[1,2-A]PYRAZINE COMPOUNDS FOR THE TREATMENT OF AUTOIMMUNE DISEASE” (Hoffmann-La Roche Inc., priority 2019, published 2022)",
  "test_system": "TLR7 agonist-induced lupus-like disease",
  "test": "R848 agonist induced mouse lupus nephritis disease model",
  "assay_type": "in vivo, BALB/c mice",
  "conditions": "10 mg/kg orally once daily",
  "text": "Agonist Induced Mouse Lupus Nephritis Disease Model To assess compound efficacy in vivo against lupus nephritis, we utilized a murine model of TLR7 agonist-induced lupus-like disease, in which TLR7 activation leads to the development of systemic autoimmune symptoms with elevated levels of autoantibodies to double-stranded DNA (anti-dsDNA), inflammatory cytokines such as IP10, as well as multiple organs involvement especially in kidney and spleen. BALB/c mice were purchased from Vital River Laboratories Co., Ltd., Beijing, China. All mice were 7 to 8-week old female. To induce disease, animals were topically treated on the right ear with 100 μg of Resiquimod (R848) solved in 20 μL of acetone for three times per week. Compound or vehicle treatment was administrated orally once daily and 30 minutes prior to the epicutanenous R848 treatment if they were on the same day. Blood samples were collected once weekly to gauge the level of autoantibody against double stranded DNA and multiple cytokines in serum. The total anti-dsDNA Immunoglobulins in serum were measured according to the manufacturer's instruction with a commercially available ELISA assay (Cat #5110, Alpha Diagnostic Inti Inc.). Cytokine levels in serum were measured with a ProcartaPlex immunoassay Kit (Cat #[…], Thermo Fisher). Specifically, 10 μL of premixed magnetic capture beads were added to a DropArray DA-bead plate (Cat #969-CC-BD-05, Curiox). After washing, 10 μL of diluted sera (1:5) was incubated on the DA-bead plate overnight at 4° c. After washing for three times, 5 μL of premixed detection antibody was added to the plate with an incubation for 60 minutes at room temperature. After washing, 10 μL of Streptavidin-PE was added with an incubation for 30 minutes at room temperature. The beads were then re-suspended in 55 μL Reading Buffer. Samples were analyzed with a Luminex 200 (Millipore). Urine samples were collected once weekly with the animals housed in metabolic cages for 24 hours, and were subjected to the measurements of urinary albumin (UALB), urinary creatinine (UCR) and urinary total protein (UTP) with a Roche Cobas 6000 Chemistry Analyzer (Roche Diagnostics, Mannheim, Germany). Tubular protein scores of 0 to 3 were based on the percentage of tubules containing proteinaceous fluid. Grade 1: <25% of tubules affected; Grade 2: 25 to 50% of tubules affected; Grade 3: >50% of tubules affected. Spleens were harvested and weighed upon study termination to evaluate splenomegaly.",
  "data": [
    {"compound": "[2H]c1ccc2c(N3C[C@@H]4CN(c5ccc([C@@H]6CNCCO6)cc5)CCN4[C@@H](C)C3)ccc(C#N)c2n1", "note": "[Example 106, 5-[(4S,9aS)-4-methyl-8-[4-[(2R)-morpholin-2-yl]phenyl]-3,4,6,7,9,9a-hexahydro-1H-pyrazino[1,2-a]pyrazin-2-yl]-2-deuterio-quinoline-8-carbonitrile]", "values": [
      {"measurement": "production of Interferon gamma-induced protein 10 (IP-10) in serum", "setting": "after 1 week of treatment (FIG. 3A)", "value": "inhibited"},
      {"measurement": "level of anti-dsDNA autoantibodies in serum", "setting": "after 2 weeks of treatment (FIG. 3B)", "value": "significantly reduces"},
      {"measurement": "kidney damage / R848-induced proteinuria (UACR)", "setting": "after 5 weeks of treatment (FIG. 3C)", "value": "no R848-induced proteinuria increase"},
      {"measurement": "splenomegaly / spleen weight", "setting": "after 6 weeks of treatment (FIG. 3D)", "value": "prevented splenomegaly"}
    ]}
  ]
}
